The nature of data set [1]: Parallel Artificial Membrane Permeability Assay (PAMPA), kIAM on IAM.PC.DD.2 HPLC column. Conditions: kIAM >1 indicative of good brain permeability. It counts as in vitro ADME. As for the experimental part:
Receptor Binding, Inhibition, and Parallel Artificial Membrane Permeability Assay (PAMPA).
Agilent 1260 infinity high-performance liquid chromatography system was used for analysis. The analytical column used was an IAM.PC.DD.2 column (4.6 mm i.d.×10 cm length, particle size […], pore size 300 Å) purchased from Regis Technologies (Morton Grove, Ill.). The mobile phase was a mixture of acetonitrile and water (35:65 v/v). The flow rate of the mobile phase was maintained at 1.0 ml/min at 25° C., and the ultraviolet absorption wavelength was set at 254 nm. Analysis was performed using 5 μL injection of the 2 mM stock solutions of the compounds. Compounds with kIAM values >1 in the PAMPA assay in our hands are indicative of good brain permeability.

In data set [2] the test system is tau and ptau in SH-SY5Y cells. Briefly: tau and p-tau levels in SH-SY5Y cells after compound treatment (AlphaLISA). Format: cell-based, Human. The conditions noted are these: 1 μM compound, 24 hours, no CRF. As to the method:
Human neuroblastoma SH-SY5Y cells were treated for 24 hours with 1 μM compound, and then tau and ptau levels were determined from cell lysates using AlphaLISA (FIG. 7A). T41, as well as J32. […] Antalarmin (Ant), a known CRF1 antagonist, was used as a control.

In data set [3] the target is T1, CRFR1 (Homo sapiens, UniProt P34998).
T1 sequence (P34998 24-415): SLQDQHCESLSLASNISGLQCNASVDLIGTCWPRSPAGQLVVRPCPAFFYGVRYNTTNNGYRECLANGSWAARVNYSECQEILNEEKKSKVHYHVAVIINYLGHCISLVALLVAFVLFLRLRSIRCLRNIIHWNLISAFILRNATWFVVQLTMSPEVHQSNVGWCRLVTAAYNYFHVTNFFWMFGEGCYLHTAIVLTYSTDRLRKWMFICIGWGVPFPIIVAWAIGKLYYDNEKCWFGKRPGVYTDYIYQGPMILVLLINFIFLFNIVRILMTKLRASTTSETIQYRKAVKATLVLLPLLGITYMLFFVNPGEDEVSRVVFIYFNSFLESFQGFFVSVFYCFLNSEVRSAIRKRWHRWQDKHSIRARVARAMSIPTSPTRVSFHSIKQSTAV
Briefly: CRF1 antagonist effect (inhibition of CRFR1 cAMP signaling upon CRF binding). It counts as cell-based. Details: expressed in transfected cells; host or cells: COS-M6 (transiently transfected).

The target of data set [4] is T1, CRFR1. The experiment in a line: Radioligand-receptor binding assay (agonist radioligand), CRF1 Kd. Details: expressed in transfected cells; host or cells: HEK293 (permanently transfected), membranes. Conditions: [125I]Tyr-sauvagine agonist radioligand. As for the experimental part: Radioligand-Receptor Binding Assays (Agonist Radioligand).
Isolation of membranes from permanently transfected HEK293 cells expressing tCRFR1 or hCRFR1 and Scatchard analysis were performed with 50-100 ng protein as described (3) except that 50 pM [^125I]Tyr-sauvagine (NEN) was used as radioligand. [^125I]Tyr-Sauvagine was chosen as radioligand because of its equal high affinity for both CRF-R1 and CRF-R2. Nonspecific binding was always defined as residual [^125I]Tyr-sauvagine binding in the presence of 1 μM unlabeled ligand. The dissociation constant, KD, was calculated by the Ligand program (Munson et al. (1980) Anal. Biochem. 107: 220).

Data set [5] concerns tau and ptau in SH-SY5Y cells with CRF challenge. The experiment in a line: CRF challenge assay, tau and p-tau in SH-SY5Y cells. It counts as cell-based, Human. The conditions noted are these: for ptau/tau ratio: 1 μM compound, three days. As for the experimental part:
[…] On the next day, cells were treated with 100 nM CRF for 3 days. Next, cells were lysed with RIPA buffer complemented with Halt Cocktail Inhibitors, and freeze/thaw 3 times. […] Significance was not seen without CRF due to low N#, but is highly significant with CRF.

Data set [6] in a line: In vivo pharmacokinetics, plasma and brain levels. The conditions noted are these: adult mice. As for the experimental part: FIG. 10 illustrates in vivo pharmacokinetics for T41. As shown in the top panel, after oral or subcutaneous (SQ) dosing of adult mice at 10 or 30 mg/kg. and collection of plasma and brain at 1, 2, 4, and 8 hours, the brain/plasma ratio was ˜3:2 for 30 mg/kg oral dosing and ˜2:1 for 30 mg/kg SQ injection. […] After oral dosing at 30 mg/kg, brain levels peaked at 1 hour at 328 ng/g.

In data set [7] the test system is "Goldstein" (GS) prnp-huAPPwt-YFP mouse model. The experiment in a line: Novel Object Recognition (NOR) in corticosterone (CTS)-treated GS mice. It counts as in vivo. The conditions noted are these: T41 30 mkd oral 1 hour before CTS 30 mkd SQ, 21 days. An excerpt:
(§1) The purpose of this study was to determine behavioral and biochemical effects of T41 (shown below and in FIG. 2) and its ability to prevent corticosterone (CTS)-induced increases in ptau in the “Goldstein” (GS) prnp-huAPPwt-YFP mouse model. Corticosterone is known to increase CRF, which then should bind the receptor and trigger increases in ptau with chronic CTS injection. Biochemistry included total tau, ptau, and sAPPα from combined entorhinal cortex and hippocampus. Levels of sAPPβ, βCTF, and […] and -42 are believed to be too low to detect in this model.

Another data set has as its system ptau and total tau. Briefly: In vivo ptau, total tau and ptau/tau ratio, combined entorhinal cortex and hippocampus, CTS-treated GS mice. Details: species or system mouse. The conditions noted are these: T41 30 mkd oral + CTS, 21 days.
Another data set deals with human sAPPα. The experiment in a line: In vivo sAPPα, CTS-treated GS mice. Details: species or system mouse. Conditions: T41 30 mkd oral + CTS, 21 days.
Excerpt: as §1
The assay used to detect sAPPα recognizes human sAPPα, therefore the signal is expected to be undetectable in NTg mice. There was little or no difference between GS Veh and GS CTS mice (FIG. 13). […] Increases in sAPPα are correlated with improvement in cognition.

Where [8] appears, read: 1 μM compound and 100 nM CRF, 24 hours.
The mark [9] stands for this setting: hippocampus and entorhinal cortex.

“And” between values parts separate entries of the source, which are not always exact repeats. Identical values can stand only once. Some results are limits rather than exact numbers.

One may read the EC50 as the midpoint of the concentration-response curve. A lower EC50 goes with greater potency. For orientation: Kd means a measure of binding affinity in units of concentration. Read a low Kd as tighter binding. For `CCC(COC)Nc1nc(C)nc(Oc2c(C)cc(C)cc2C)c1C` (stereo not shown) [Compound T33], the “PAMPA KIAM” value in [1] came out at 6.34. For the same compound, in [2], the p-tau result was “slightly decreased” and the total tau result is reported as “slightly decreased”. The same compound displayed an EC50 on CRFR1 [3] (values given in μM) of more than 2 µM. The compound further displayed a Kd at CRFR1 [4] of approximately 0.03 µM.
As to `CCC(COC)Oc1nc(C)nc(Nc2ccc(F)cc2F)c1C` (stereo not shown) [Compound T45], the “PAMPA KIAM” value in [1] turned out to be 3.32. The Kd at CRFR1 [4] was more than 0.1 µM.
For `CCC(COC)Nc1nc(C)nc(Oc2ccc(Cl)cc2C)c1C` (stereo not shown) [Compound T37, 6-(4-chloro-2-methylphenoxy)-N-(1-methoxybutan-2-yl)-2,5-dimethylpyrimidin-4-amine] the same measures were 5.79 and more than 0.1 µM.
Consider `CCC(COC)Oc1nc(C)nc(Nc2ccc(F)cc2C)c1C` (stereo not shown) [Compound T48], for which the “PAMPA KIAM” value in [1] amounted to 3.27.
Turning to `CCC(COC)Nc1nc(C)nc(Oc2ccc(OC)cc2C)c1C` (stereo not shown) [Compound T36, 6-(4-methoxy-2-methylphenoxy)-N-(1-methoxybutan-2-yl)-2,5-dimethylpyrimidin-4-amine], the “PAMPA KIAM” value in [1] amounted to 2.31. Further, the Kd on CRFR1 [4] was more than 0.1 µM.
For `CCC(COC)Oc1nc(C)nc(Nc2ccn(C)n2)c1C` (stereo not shown) [Compound T54], the “CRF1 (agonist radioligand) Kd/(nM)” value on CRFR1 [4] was “DEAD”.
`CCC(COC)Oc1nc(C)nc(Nc2ccc(OC)cc2C)c1C` (stereo not shown) [Compound T38, N-(4-methoxy-2-methylphenyl)-6-((1-methoxybutan-2-yl)oxy)-2,5-dimethylpyrimidin-4-amine]: in [1], the “PAMPA KIAM” value is 2.02. For the same compound, on CRFR1 [3] (values given in μM), the EC50 was more than 2 µM. For the same compound, the Kd at CRFR1 [4] is approximately 0.03 µM.
With `CCC(COC)Oc1nc(C)nc(Nc2ccc(F)cc2C(F)(F)F)c1C` (stereo not shown) [Compound T46], in data set [1], the “PAMPA KIAM” value is 2.90. The compound also returned a Kd at CRFR1 [4] of more than 0.1 µM.
`CCC(COC)Oc1nc(C)nc(Nc2ccc(Cl)cc2C)c1C` (stereo not shown) [Compound T39]: the “PAMPA KIAM” value in data set [1] was found to be 6.19. Besides, in data set [2], the p-tau entry is “slightly decreased”, the p-tau/tau ratio result is listed as “significantly decreased” and the total tau result is given as “slightly decreased”. Besides, the EC50 on CRFR1 [3] (values given in μM) was more than 10 µM. Besides, binding on CRFR1 [4] was put at a Kd of 0.075 µM.
In the case of `CCC(COC)Oc1nc(C)nc(Nc2ncc(C)cc2C)c1C` (stereo not shown) [Compound T51], the Kd on CRFR1 [4] worked out at 1 µM.
For `CCC(COC)Oc1nc(C)nc(Nc2cnn(C)c2C)c1C` (stereo not shown) [Compound T53], at CRFR1 [4], the “CRF1 (agonist radioligand) Kd/(nM)” value is “DEAD”.
For the compound `CCC(COC)Oc1nc(C)nc(Nc2c(C)cc(F)cc2C)c1C` (stereo not shown) [Compound T49], the Kd on CRFR1 [4] came out at 0.04 µM.
`CCC(COC)Oc1nc(C)nc(Nc2c(F)cc(F)cc2F)c1C` (stereo not shown) [Compound T47]: in data set [1], the “PAMPA KIAM” value was found to be 2.00. The Kd at CRFR1 [4] was more than 0.1 µM.
By Ki is commonly meant the equilibrium dissociation constant of an inhibitor or competing ligand from its target. Low values mean higher affinity, high ones lower affinity. As usually defined, the inhibition is the relative decrease from the control value, in per cent. For `CCC(COC)Oc1nc(C)nc(Nc2c(C)cc(C)cc2C)c1C` (stereo not shown) [Compound T41], in data set [1], the “PAMPA KIAM” value is 4.01. Besides, in [2], the p-tau result is listed as “slightly decreased”, the p-tau/tau ratio entry is given as “significantly decreased” and the total tau result was “slightly decreased”. Also, in data set [5] (setting [8]), the p-tau result was “lowers p-tau with high significance”, the p-tau/tau ratio result is on record as “significant lowering” and the tau entry is on record as “does not lower tau”. Besides, in data set [5] (with 100 nM CRF), the ptau/tau ratio result is on record as “lowers the ptau/tau ratio”. The ptau/tau ratio result in data set [5] (without CRF) was “lowers the ptau/tau ratio”. In data set [6] (10 or 30 mg/kg, oral or SQ), the “brain levels, comparison of doses and routes” value is “higher at 30 than 10 mg/kg and higher with SQ injection than oral delivery”. Moreover, in data set [6] (oral dosing at 30 mg/kg), the peak brain level is reported as 328 ng/g and the “time of peak brain level” value is 1 h. The “novelty preference (NOR), post-study” value in [7] is “promising trend toward some increased novelty preference”. Besides, in the data set on ptau and total tau (setting [9]), the ptau result is given as “no significant difference” and the total tau entry is recorded as “overall had the highest value”. Further, the ptau/tau ratio entry with ptau and total tau (versus CTS alone) is “T41 pre-treatment to prevent that increase”. Also, the sAPPα entry with human sAPPα is listed as “trend toward an increase in sAPPα in T41-treated mice that was not statistically significant”. This compound also displayed a Ki on CRFR1 [3] (CRFR1 cAMP signaling upon CRF binding) of 0.4 µM. In addition, at 1 µM the inhibition on CRFR1 [3] (at 1 μM, upon CRF binding) was 70%. On CRFR1 [3] (values in nM), a half-maximal effect (EC50) was put at 0.4 µM. Further, the Kd at CRFR1 [4] is ~0.015 µM and 0.015 µM.
`CCC(COC)Oc1nc(C)nc(OC(CC)COC)c1C` (stereo not shown) [Compound T40]: in [1], the “PAMPA KIAM” value amounted to 4.68. Moreover, the Kd at CRFR1 [4] was more than 0.1 µM.
